The text below walks through data of patent US8445444B2, “Compositions and methods for diagnosing, treating, and preventing prostate conditions” (Phigenix, Inc., priority 2007, dated 2013).

The test system of one data set is PC3/AR+. The experiment in a line: MTT cell viability assay. In kind it is cell-based, human. To be noted: PC3/AR+ compared with PC3. As for the experimental part:
MTT cell viability assay: To examine the effects of hBD-1 on cell growth, metabolic 3-[4,5-dimethylthiazol-2-yl]-2,5-diphenyl tetrazolium bromide (MTT) assay was performed. DU145, LNCaP, PC3 and PC3/AR+ cells co-transfected with pvgRXR plasmid and pIND/hBD-1 construct or control pvgRXR plasmid were seeded onto a 96-well plate at 1-5×10^3 cells per well. Twenty-four hours after seeding, fresh growth medium was added containing 10 μM Pon A daily to induce hBD-1 expression for 24, 48 and 72 h after which the MTT assay was performed according to the manufacturer's instructions (Promega). Reactions were performed three times in triplicate.
(In general: Formazan colour is commonly taken as a measure of viable cells.)

The next data set has as its system DU145. The experiment in a line: Pan-caspase detection (FAM-VAD-FMK, confocal). In kind it is cell-based, human. The conditions noted are these: DU145, 24 h DEFB1 (hBD-1) induction. As for the experimental part:
Detection of caspase activity in the prostate cancer cell lines was performed using APO LOGIX™ Carboxyfluorescin Caspase detection kit (Cell Technology, Mountain View, Calif.). Active caspases were detected through the use of a FAM-VAD-FMK inhibitor that irreversibly binds to active caspases. Briefly, DU 145 and PC3 cells (1.5-3×10^5) containing the DEFB1 expression system were plated in 35 mm glass bottom microwell dishes (Matek, Ashland, Mass.) and treated for 24 hours with media only or with media containing PonA as previously described. Next, 10 μl of a 30× working dilution of carboxyfluorescein labeled peptide fluoromethyl ketone (FAM-VAD-FMK) was added to 300 μl of media and added to each 35 mm dish. Cells were then incubated for 1 hour at 37° C. under 5% CO2. […] The fluorescent signal was analyzed using a confocal microscope (Zeiss LSM 5 Pascal) and a 63×DIC oil lens with a Vario 2 RGB Laser Scanning Module.
Pan-Caspase Detection: Detection of caspase activity in the prostate cancer cell lines was performed using APO LOGIX™ Carboxyfluorescin Caspase detection kit (Cell Technology, Mountain View, Calif.). Active caspases were detected through the use of a FAM-VAD-FMK inhibitor that irreversibly binds to active caspases. […] The fluorescent signal was analyzed using a confocal microscope (Zeiss LSM 5 Pascal) and a 63×DIC oil lens with a Vario 2 RGB Laser Scanning Module. […]

“Also recorded” adds a separate entry of the source.

As to “DEFB1: human beta defensin-1 expressed from the ecdysone inducible pIND/DEFB1 construct, induced with Ponasterone A (DHYNCVSSGGQCLYSACPIFTKIQGTCYRGKAKCCK; UniProt P60022 33-68, looked up)”, the “hBD-1 cytotoxicity with ectopic AR expression” value with PC3/AR+ is “no difference between PC3/AR+ and PC3 cells”. Also, the caspase activity entry in the data set on DU145 is given as “revealed caspase activity; also recorded: green staining”; in the data set with DU145 (listed as hBD-1) it was “green staining”.
